Reference: the NIST ThermoML archive (doi:10.1016/j.jct.2008.08.013)
Numbers after ± are expanded uncertainties.

Conditions: 101.33 kPa, Liquid, Vibrating tube method

Structure (SMILES) | mass density (288.15 K) [kg/m3] | mass density (293.15 K) [kg/m3] | mass density (298.15 K) [kg/m3] | mass density (303.15 K) [kg/m3]
Nc1ccccc1 [aniline] | 1025.93 ± 0.1 | 1021.04 ± 0.09 | 1017.1 ± 0.09 | 1012.84 ± 0.09
ClCCl [dichloromethane] | 1334.81 ± 0.18 | 1325.67 ± 0.18 | 1316.58 ± 0.17 | 1307.9 ± 0.17
O=[N+]([O-])c1ccccc1 [nitrobenzene] | 1211.53 ± 0.13 | 1202.61 ± 0.13 | 1198.01 ± 0.12 | 1193.5 ± 0.12
